Test results from patent US11945779B2, “Inhibitors of cancer metastasis through inhibiting migration and invasion of cancer cells” (VSpharmtech, priority 2018, dated 2024).

Key:
[1] = system: pancreatic cancer cell line AsPc-1; experiment: Cytotoxicity / proliferation analysis (WST-1), AsPc-1; format: cell-based, human; conditions: AsPc-1, FIG. 8
Method: In order to verify cytotoxicity of CG-608 to CG-610 and CG-613 to CG-618 prepared in Examples 1 to 9, human colon cancer cell line DLD-1 cells (ATCC-CCL-221), pancreatic cancer cell line AsPc-1 cells (ATCC-CRL-1682), and normal cells MCF10A (ATCC-CRL-10317) were cultured in an RPMI medium containing 10% bovine fetal serum (FBS) while maintaining 37° C. and 5% CO2, and then the cells were detached using a 0.05% trypsin-EDTA. 4×10^3 cells calculated by a hematocytometer were inoculated in each well of a 96-well plate containing a 10% FBS containing medium and cultured in a 37° C. incubator containing 5% C2.
After 24 hours, the medium of each well was exchanged to a new medium containing a control group (0.1% DMSO) and CG-609 prepared in Example 1 or CG-618 prepared in Example 9 as a representative benproperine derivative at concentrations of 1 μM, 5 μM, and 10 μM. Thereafter, the cells were cultured in an incubator at 37° C. and 5% CO2 for 48 hours. Thereafter, […] of WST-1 (Roche) was added to each well and cultured for 2 hours, and then the absorbance was measured at 450 nm using an ELISA reader (Bio-Rad).

[2] = system: pancreatic cancer cell line AsPc-1; experiment: Trans-well cancer cell migration inhibition, AsPc-1; format: cell-based; conditions: Homo sapiens, ASPC1; for IC50: Pancreatic cancer cell line AsPc-1, read-out: Concentration inhibiting migration of cancer cells by 50% (IC50 value)
Method: (§1) In order to analyze cancer cell migration inhibitory activity of CG-608, CG-609 or CG-618 prepared in Examples 1, 2, or 9, cell migration inhibitory activity was measured using a trans-well by targeting a colon cancer cell line DLD-1 (ATCC-CCL-221), pancreatic cancer cell lines AsPc-1 (ATCC-CCL-1682). CFPAC-1 (ATCC-CCL-1918). Panc-1 (ATCC-CCL-1469), and Miapaca-2 (ATCC-CCL-1420), a skin cancer cell line A375-P (ATCC-CCL-3224), lung cancer cell lines HCC-827 (ATCC-CCL-2868), A549 (ATCC-CCL-185), and NCI-H460 (ATCC-CCL-177), a prostate cancer cell line DU145 (ATCC-HTB-81), a stomach cancer cell line NuGC-3 (JCRB0822), and an ovarian cancer cell line SKOV-3 (ATCC-HTB-77).
(§2) First, the number of DLD-1 cells was measured using a hemocytometer in an RPMI medium without FBS. Thereafter, the trans-well was placed on a 24-well plate and 8×10^4 cells/200 mL of cells were added. In an empty space with the trans-well on the well plate, 500 mL of an RPM medium having 10% FBS containing CG-608, CG-609, or CG-618 was added and cultured in a CO2 incubator at 37° C. for 16 hours. After culture, […] of crystal violet (5 mg/mL of 20% […] was added to each well of the 24-well plate and the trans-well was dyed at room temperature for 30 minutes. The dyed trans-well was washed with PBS and non-migrated cells were wiped off with cotton swabs. The prepared sample was photographed with an inverted microscope mounted with a digital camera (TE 300, Nikon. Japan) and then the number of migrated cells was counted. The degree of inhibiting cell migration was calculated by Equation 1 for a group treated with the sample compared to a control group (DMSO).
In Equation 1, ‘the number of migrated cells treated with sample’ refers to the number of migrated cells measured by treating CG-608 or CG-618 of Example 1, and ‘the number of migrated cells of a control sample’ refers to the number of migrated cells measured by treating only 1% dimethyl sulfoxide (DMSO) instead of the compound.

lung cancer cells A549 = experiment: Trans-well cancer cell migration inhibition, A549; format: cell-based; conditions: A549, concentration not given, FIG. 3
Method: as §1
as §2, with “Thereafter, the trans-well was placed on a 24-well plate and 8×10^4 cells/200 mL of cells were added. In an empty space with the trans-well on the well plate, 500 mL of an RPM medium having 10% FBS containing CG-608, CG-609, or CG-618 was added and cultured in a CO2 incubator at 37° C. for 16 hours.” left out, “(DMSO). […]” for “(DMSO).”

[3] = system: human melanoma cell line A375P; experiment: Lamellipodia formation inhibition (confocal microscope), A375P; format: cell-based; conditions: A375-p, 6 hours, FIG. 9
Method: (§3) A human colon cancer cell line DLD-1, a human pancreatic cancer cell line AsPc-1, a human melanoma cell line A375P, and normal cells MCF10A were each cultured to 1×10^5 cell density on a 35 mm high-m dish plate (ibid GmbH). The cells attached to the plate were washed with phosphate buffered saline (PBS) and then treated with DMSO or CG-618 dissolved in DMSO for 6 hours. After removing the cell culture medium from the plate, the plate was washed two times with PBS and treated with 4% paraformaldehyde dissolved in PBS at room temperature for 10 minutes to immobilize the cells. The plate was washed with PBS once and then treated with 0.2% Triton X-100 at room temperature for 10 minutes to enhance cell permeability. The plate was washed with PBS and treated with 1% BSA dissolved in PBS at room temperature for 1 hour to block non-specific bonds. In order to check the distribution in cells of filament actin (F-actin), phalloidin bound with Alexa Fluor 488, which was specifically bound with F-actin, was treated at room temperature for 15 minutes. The plate was washed with PBS three times and then treated with 2 mg/mL 4′,6′-diamidino-2-phenylindole (DAPAI) dissolved in PBS for two minutes at room temperature to dye the nucleus. The plate was washed with PBS three times and filled with 1 mL PBS. […] The obtained images were analyzed by an analysis program (LSM Version 3.2 software).

[4] = system: colon cancer cell line DLD-1; experiment: Real-time single cell migration imaging (HoloMonitor M4), DLD-1; format: cell-based, human; conditions: DLD-1, 24 hours, FIG. 7
Method: (§4) An effect of a drug on migration of single cells was confirmed using HoloMonitor M4 (Phase Holographic Imaging), real-time cell migration imaging and analysis equipment. All experiments were performed within a 37° C. cell incubator to analyze cell migration while cells were alive for a long time. To prevent water vapor generated during cell imaging for a long time from obstructing the imaging, the experiment was conducted by dividing cells in an m-slide microcopy chamber (Ibidi). In order to analyze migration of single cells, cells (2.5×10^5 cells/mL) to be analyzed were divided to the m-slide microscopy chamber by 0.2 mL and cultured for more than 12 hours. The cells were sufficiently attached to its original shape and then treated with the drug, and a position to be analyzed was specified, and then the cell migration was measured in real time.
(§5) The cell migration was measured for 24 hours at five-minute intervals, and migration of 25 cells per group was analyzed. Using the HoloMonitor tracking software, a total distance migrated by the cells during the time measured, a linear distance from the starting point to the arrival point, a rate of migration, and a direction were quantitatively analyzed, and the migration of single cells was visualized with a Wind-Rose plot (FIG. 7).

normal cell line MCF-10A = experiment: Real-time single cell migration imaging (HoloMonitor M4), MCF-10A; format: cell-based; conditions: 24 hours, FIG. 7
Method: as §4, §5

[5] = system: human colon cancer cell line DLD-1; experiment: Lamellipodia formation inhibition (confocal microscope), DLD-1; format: cell-based; conditions: DLD-1, 6 hours, FIG. 9
Method: as §3

normal cells MCF10A = experiment: Lamellipodia formation (confocal microscope), MCF10A; format: cell-based; conditions: normal cell line MCF-10A, 6 hours, FIG. 9
Method: as §3

Row | SMILES | Growth of cancer cells [1] | inhibition at 1 µM ([2]; AsPc-1, 1 μM, FIG. 3) [%] | IC50 [2] [µM] | Inhibition of cell migration (lung cancer cells A549) [%] | Formation of lamellipodia [3] | Migration of single cancer cells (real-time imaging) [4] | Migration of single normal cells (real-time imaging) (normal cell line MCF-10A) | Formation of lamellipodia [5] | Formation of lamellipodia (normal cells MCF10A)
1 | C[C@H](COc1ccccc1Cc1ccccc1)N1CCCC[C@@H]1C [CG-609, (S)-1-((R)-1-(2-benzylphenoxy)propan-2-yl)-2-methylpiperidine] | did not affect the growth | ≥ 50 | 0.11 | ≥ 50 |  |  |  |  | 
2 | CC1CCCCN1C(C)COc1ccccc1Cc1ccccc1 (racemic) [CG-618, 1-(1-(2-benzylphenoxy)propan-2-yl)-2-methylpiperidine] | did not affect the growth |  | 0.7 |  | inhibits formation of lamellipodia | strongly inhibited | increased | inhibits formation of lamellipodia | has no effect
